Bounds are passed on as bounds.

Results on 2 compounds are retold here after patent EP3325465B1, “PESTICIDALLY ACTIVE PYRAZOLE DERIVATIVES” (Syngenta Participations AG, priority 2015, dated 2017).

Common to all, as to type: in vivo
In assay [1] the test system is Spodoptera littoralis (Egyptian cotton leaf worm). The experiment in a line: Spodoptera littoralis cotton leaf disc spray test, L1 larvae. The note with it: foliar, 72 h, application rate of 200 ppm, 3 days after infestation, L1 larvae, read-out: mortality. The gist of the method:
(§1)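 Leaf discs on agar sprayed with aqueous dilutions of 10'000 ppm DMSO stocks, then infested after drying: Myzus persicae (sunflower, 200 ppm, mixed ages), mortality at 6 DAT; Thrips tabaci (sunflower, mixed ages), mortality at 6 days; Tetranychus urticae (bean, mixed ages), mobile-stage mortality at 8 days; Spodoptera littoralis (cotton), five L1 larvae per disc.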

Assay [2] relates to Plutella xylostella (Diamond back moth). Kind of assay: Plutella xylostella artificial diet test, L2 larvae. To be noted: 120 h, application rate of 200 ppm, mortality and growth inhibition 5 days after infestation. Summed up: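 Artificial diet in 24-well microtiter plates was treated by pipetting with aqueous test solutions made from 10'000 ppm DMSO stock solutions. Once dry, each well received 10 to 15 second-instar (L2) Plutella xylostella larvae. Mortality and growth inhibition were scored against untreated samples 5 days after infestation.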

Assay [3] has as its system Diabrotica balteata, (Corn root worm). The experiment in a line: Diabrotica balteata maize sprout spray test, L2 larvae. To be noted: 96 h, application rate of 200 ppm, 4 days after infestation, L2 larvae, read-out: mortality. The gist of the method: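 Test solutions in water, made from DMSO stock solutions at 10'000 ppm, were sprayed onto maize sprouts resting on an agar layer in 24-well microtiter plates. Once the treated sprouts had dried, each well was infested with 6 to 10 second-instar (L2) Diabrotica balteata corn rootworm larvae, and mortality was then scored as percent.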

In assay [4] the test system is Thrips tabaci (Onion thrips). Kind of assay: Thrips tabaci sunflower leaf disc spray test. The note with it: foliar, 144 h, application rate of 200 ppm, mortality 6 days after infestation, mixed ages. Summed up:
as §1

For assay [5], the system named is Tetranychus urticae (Two-spotted spider mite). Kind of assay: Tetranychus urticae bean leaf disc spray test. To be noted: foliar, 192 h, application rate of 200 ppm, mortality on mixed population (mobile stages) 8 days after infestation. Summed up: as §1
Assay [6] relates to Euschistus heros (Neotropical Brown Stink Bug). Kind of assay: Euschistus heros soybean plant spray test, N2 nymphs. To be noted: 120 h, application rate of 12.5 ppm, 5 days after infestation, N2 nymphs, read-out: mortality of Euschistus heros.
In assay [7] the test system is Myzus persicae (Green peach aphid). Kind of assay: Myzus persicae sunflower leaf disc spray test. To be noted: foliar, 144 h, application rate of 200 ppm, leaf disc spray, 6 DAT, read-out: mortality of Myzus persicae. From the text:
(§2) The pesticidal/insecticidal properties of the compounds according to embodiments 1 or 2 can be illustrated via the following tests: Spodoptera littoralis (Egyptian cotton leaf worm) • Cotton leaf discs were placed onto agar in 24-well microtiter plates and sprayed with aqueous test solutions prepared from 10'000 ppm DMSO stock solutions. After drying the leaf discs were infested with five L1 larvae. […] Plutella xylostella (Diamond back moth): 24-well microtiter plates with artificial diet were treated with aqueous test solutions prepared from 10'000 ppm DMSO stock solutions by pipetting. After drying, the plates were infested with L2 larvae (10 to 15 per well). The samples were assessed for mortality and growth inhibition in comparison to untreated samples 5 days after infestation. […] Diabrotica balteata, (Corn root worm) • Maize sprouts placed onto an agar layer in 24-well microtiter plates were treated with aqueous test solutions prepared from 10'000 ppm DMSO stock solutions by spraying. After drying, the plates were infested with L2 larvae (6 to 10 per well). […] Thrips tabaci (Onion thrips): Sunflower leaf discs were placed on agar in 24-well microtiter plates and sprayed with aqueous test solutions prepared from 10'000 ppm DMSO stock solutions. After drying the leaf discs were infested with a thrips population of mixed ages. The samples were assessed for mortality 6 days after infestation. […] Tetranychus urticae (Two-spotted spider mite): Bean leaf discs on agar in 24-well microtiter plates were sprayed with aqueous test solutions prepared from 10'000 ppm DMSO stock solutions. After drying the leaf discs were infested with a mite population of mixed ages. The samples were assessed for mortality on mixed population (mobile stages) 8 days after infestation. […] Euschistus heros (Neotropical Brown Stink Bug): • Two weeks old soybean plants were sprayed in a turn table spray chamber with the diluted spray solutions. After drying 2 soybean seeds were added and plants were infested with 10 N2 nymphs of the neotropical brown stink bug Euschistus heros in plastic test boxes. The samples were assessed for mortality in comparison to untreated samples 5 days after infestation. • The following compounds gave at least 80% mortality of Euschistus heros at an application rate of 12.5 ppm: Compounds 3 , 4 , 8 , 39 , 43 , 44 , 46 , 75 , 76 , 77 , 78 , 79 , 80 , 81 , 82 , 88 , 90 , 93 and 95 . Myzus persicae (Green peach aphid): Sunflower leaf discs were placed on agar in a 24-well microtiter plate and sprayed with test solutions at an application rate of 200 ppm. After drying, the leaf discs were infested with an aphid population of mixed ages. After an incubation period of 6 DAT, samples were checked for mortality. The following compounds gave at least 50% mortality of Myzus persicae: Compounds 3 , 4 , 8 , 43 , 44 , 75 , 76 , 77 , 80 , 81 , 90 and 92 . Myzus persicae (Green peach aphid): • Test compounds were applied by pipette into 24 well plates and mixed with Sucrose solution. Application rate: 12.5ppm. The plates were closed with a stretched parafilm. A plastic stencil with 24 holes is placed onto the plate and infested pea seedlings were placed directly on the Parafilm. The infested plate is closed with a gel blotting paper and another plastic stencil and then turned upside down. […]

Assay [8] shares this test system. Kind of assay: Myzus persicae sucrose solution / Parafilm feeding test. The note with it: 120 h, Application rate: 12.5ppm, sucrose solution, 5 days after infestation, read-out: mortality of Myzus persicae.
The test system of assay [9] is Spodoptera littoralis (Egyptian cotton leaf worm). Kind of assay: Biological comparison c): insecticidal activity against Spodoptera littoralis, larvicide L-3, feeding/contact, soybean plants. To be noted: 120 h, 5 days after infestation, L3 larvae; for mortality at 0.05 ppm: Concentration 0.05 ppm; for mortality at 0.2 ppm: Concentration 0.2 ppm; for mortality at 0.8 ppm: Concentration 0.8 ppm; for mortality at 3 ppm: Concentration 3 ppm; for mortality at 12.5 ppm: Concentration 12.5 ppm. An excerpt: c) Insecticidal activity against Spodoptera littoralis (Egyptian cotton leaf worm): (larvicide L-3, feeding/contact) Soybean plants are sprayed with diluted test solutions in an application chamber. The plants (2 replicates) are infested with 10 L3 larvae 1 day after treatment. Samples are checked 5 days after infestation for mortality, feeding behavior, and growth regulation.

The subject of assay [10] is Diabrotica balteata (Corn root worm). The experiment in a line: Biological comparison a): insecticidal activity against Diabrotica balteata, maize sprouts. To be noted: 96 h, 4 days after infestation.
Source text: as §2

Usually mortality stands for the percentage killed. Usually pest or weed control stands for how far the test organism was held down. Regarding `Cn1nc(C(F)(F)C(F)(F)F)c(C(F)(F)F)c1-c1cc(-c2ccc(Cl)c(C(=O)NC3(C#N)CC3)c2)sn1` [Compound 44, 2-chloro-N-(1-cyanocyclopropyl)-5-[3-[2-methyl-5-(1,1,2,2,2-pentafluoroethyl)-4-(trifluoromethyl)pyrazol-3-yl]isothiazol-5-yl]benzamide], the mortality at 200 ppm in assay [1] was at least 80%; in assay [3] it was at least 80%; in assay [7] it was at least 50%. Moreover, the pest or weed control at 200 ppm in [2], in assay [4] and in assay [5] was at least 80% each time. In addition, the mortality at 12.5 ppm in [6] is at least 80%; in [8] it was at least 80%; in assay [9], 100%. This compound came in with a mortality at 0.05 ppm in assay [9] of 0%. This compound also returned a mortality at 0.2 ppm in assay [9] of 0%. Further, the mortality at 0.8 ppm in assay [9] amounted to 50%. In assay [9], the mortality at 3 ppm was determined as 95%.
As to `Cn1nc(C(F)(F)C(F)(F)F)c(C(F)(F)F)c1-n1cc(-c2ccc(Cl)c(C(=O)NC3(C#N)CC3)c2)nn1` [Compound A, reference compound], in [10] (Concentration 0.195 ppm), the mortality at 0.195 ppm came out at 0%. In assay [10] (Concentration 0.781 ppm), this compound returned a mortality at 0.781 ppm of 0%. Besides, the mortality at 3.12 ppm in assay [10] (Concentration 3.12 ppm) came out at 100%. In addition, the mortality at 12.5 ppm in assay [10] (Concentration 12.5 ppm) was determined as 100%. In assay [10] (Concentration 50 ppm), this compound showed a mortality at 50 ppm of 100%. In assay [9], this compound displayed a mortality at 0.05 ppm of 0%, a mortality at 0.2 ppm of 0%, a mortality at 0.8 ppm of 0% and a mortality at 3 ppm of 60%. Moreover, the mortality at 12.5 ppm in [9] worked out at 100%.
